Results taken from PubChem BioAssay AID1259407 (Chemical Carcinogenesis Research Information System (CCRIS), 2018).
Entries after “also recorded” stand apart in the source; their conditions may differ. Activity calls are given as the source filed them. The rule behind the calls is not given here.

Tested on: CCRIS mutagenicity, Ames/micronucleus/aberration tests
Test: CCRIS mutagenicity studies
Source text: The CCRIS database contains chemical records with carcinogenicity, mutagenicity, tumor promotion, and tumor inhibition test results. It was developed by the National Cancer Institute (NCI). Data are derived from studies cited in primary journals, current awareness tools, NCI reports, and other sources. Test results have been reviewed by experts in carcinogenesis and mutagenesis.
CCRIS provides historical information from the years 1985 - 2011. It is no longer updated.
This is an archive assay for CCRIS mutagenicity studies.

[1] = Test System: AMES SALMONELLA TYPHIMURIUM, Strain/Indicator: TA98, Metabolic Activation: NONE, Method: STANDARD PLATE
[2] = Test System: AMES SALMONELLA TYPHIMURIUM, Strain/Indicator: TA98, Metabolic Activation: RAT, LIVER, S-9, AROCLOR 1254, Method: STANDARD PLATE
[3] = Test System: AMES SALMONELLA TYPHIMURIUM, Strain/Indicator: TA100, Metabolic Activation: NONE, Method: STANDARD PLATE
[4] = Test System: AMES SALMONELLA TYPHIMURIUM, Strain/Indicator: TA100, Metabolic Activation: RAT, LIVER, S-9, AROCLOR 1254, Method: STANDARD PLATE
[5] = Test System: AMES SALMONELLA TYPHIMURIUM, Strain/Indicator: TA1537, Metabolic Activation: NONE, Method: STANDARD PLATE
[6] = Test System: AMES SALMONELLA TYPHIMURIUM, Strain/Indicator: TA1537, Metabolic Activation: RAT, LIVER, S-9, AROCLOR 1254, Method: STANDARD PLATE

With `CCc1cn([C@H]2C[C@H](O)[C@@H](CO)O2)c(=O)[nH]c1=O` the mutagenic call (Test System: AMES SALMONELLA TYPHIMURIUM, Strain/Indicator: TA97, Metabolic Activation: NONE, Method: PREINCUBATION) was “inactive; negative”, the mutagenic call (Test System: AMES SALMONELLA TYPHIMURIUM, Strain/Indicator: TA97, Metabolic Activation: RAT, LIVER, S-9, AROCLOR 1254, Method: PREINCUBATION) was “inactive; negative” and the mutagenic call (Test System: AMES SALMONELLA TYPHIMURIUM, Strain/Indicator: TA98, Metabolic Activation: NONE, Method: PREINCUBATION) was “inactive; negative”. The mutagenic call [1] was “inactive; negative”, the mutagenic call (Test System: AMES SALMONELLA TYPHIMURIUM, Strain/Indicator: TA98, Metabolic Activation: RAT, LIVER, S-9, AROCLOR 1254, Method: PREINCUBATION) was “inactive; negative” and the mutagenic call [2] was “inactive; negative”. The mutagenic call (Test System: AMES SALMONELLA TYPHIMURIUM, Strain/Indicator: TA100, Metabolic Activation: NONE, Method: PREINCUBATION) was “inactive; negative”, the mutagenic call [3] was “inactive; negative” and the mutagenic call (Test System: AMES SALMONELLA TYPHIMURIUM, Strain/Indicator: TA100, Metabolic Activation: RAT, LIVER, S-9, AROCLOR 1254, Method: PREINCUBATION) was “inactive; negative”. The mutagenic call [4] was “inactive; negative”, the mutagenic call (Test System: AMES SALMONELLA TYPHIMURIUM, Strain/Indicator: TA102, Metabolic Activation: NONE, Method: PREINCUBATION) was “inactive; negative” and the mutagenic call (Test System: AMES SALMONELLA TYPHIMURIUM, Strain/Indicator: TA102, Metabolic Activation: RAT, LIVER, S-9, AROCLOR 1254, Method: PREINCUBATION) was “inactive; negative”. The mutagenic call (Test System: AMES SALMONELLA TYPHIMURIUM, Strain/Indicator: TA104, Metabolic Activation: NONE, Method: PREINCUBATION) was “inactive; negative”, the mutagenic call (Test System: AMES SALMONELLA TYPHIMURIUM, Strain/Indicator: TA104, Metabolic Activation: RAT, LIVER, S-9, AROCLOR 1254, Method: PREINCUBATION) was “inactive; negative” and the mutagenic call (Test System: AMES SALMONELLA TYPHIMURIUM, Strain/Indicator: TA1535, Metabolic Activation: NONE, Method: PREINCUBATION) was “inactive; negative”. For the same molecule, the mutagenic call (Test System: AMES SALMONELLA TYPHIMURIUM, Strain/Indicator: TA1535, Metabolic Activation: RAT, LIVER, S-9, AROCLOR 1254, Method: PREINCUBATION) was “inactive; negative”, the mutagenic call (Test System: AMES SALMONELLA TYPHIMURIUM, Strain/Indicator: TA1537, Metabolic Activation: NONE, Method: PREINCUBATION) was “inactive; negative” and the mutagenic call [5] was “inactive; negative”. The mutagenic call (Test System: AMES SALMONELLA TYPHIMURIUM, Strain/Indicator: TA1537, Metabolic Activation: RAT, LIVER, S-9, AROCLOR 1254, Method: PREINCUBATION) was “inactive; negative”, the mutagenic call [6] was “inactive; negative” and the mutagenic call (Test System: AMES SALMONELLA TYPHIMURIUM, Strain/Indicator: TA1538, Metabolic Activation: NONE, Method: PREINCUBATION) was “inactive; negative”. The mutagenic call (Test System: AMES SALMONELLA TYPHIMURIUM, Strain/Indicator: TA1538, Metabolic Activation: RAT, LIVER, S-9, AROCLOR 1254, Method: PREINCUBATION) was “inactive; negative” and the mutagenic call (Test System: CHINESE HAMSTER V-79, Strain/Indicator: V-79/8-AZAGUANINE, Metabolic Activation: NONE) was “inactive; negative”.
In the case of `CNC(C)Cc1ccc2c(c1)OCO2` (stereo not drawn), the mutagenic call (End Point: In vitro micronucleus, Test System: Chinese hamster lung fibroblast, Metabolic Activation: Hamster, Liver, S-9, Phenobarbital sodium and 5,6-benzoflavone) is reported as “inactive; negative. n-nitroso-3,4-methylenedioxymethamphetamine (500-900 ug/ml), expected”, the mutagenic call (End Point: In vitro micronucleus, Test System: Chinese hamster lung fibroblast, Metabolic Activation: None) is reported as “inactive; negative. n-nitroso-3,4-methylenedioxymethamphetamine (200-600 ug/ml), expected; also recorded: inactive; negative. n-nitroso-3,4-methylenedioxymethamphetamine (50-300 ug/ml), expected t” and the mutagenic call (End Point: In vitro micronucleus, Test System: Chinese hamster lung fibroblast, Metabolic Activation: Rat, Liver, S-9, Phenobarbital sodium and 5,6-benzoflavone) is reported as “inactive; negative. n-nitroso-3,4-methylenedioxymethamphetamine (500-900 ug/ml), expected”.
With `Nc1ncnc2c1ncn2[C@H]1CC[C@@H](CO)O1` the mutagenic call (Test System: AMES SALMONELLA TYPHIMURIUM, Strain/Indicator: TA98, Metabolic Activation: HAMSTER, LIVER, S-9, AROCLOR 1254, Method: STANDARD PLATE) was “inactive; negative”, the mutagenic call [1] was “inactive; negative” and the mutagenic call [2] was “inactive; negative”. The mutagenic call (Test System: AMES SALMONELLA TYPHIMURIUM, Strain/Indicator: TA100, Metabolic Activation: HAMSTER, LIVER, S-9, AROCLOR 1254, Method: STANDARD PLATE) was “inactive; negative”, the mutagenic call [3] was “inactive; negative” and the mutagenic call [4] was “inactive; negative”. The mutagenic call (Test System: AMES SALMONELLA TYPHIMURIUM, Strain/Indicator: TA1535, Metabolic Activation: HAMSTER, LIVER, S-9, AROCLOR 1254, Method: STANDARD PLATE) was “inactive; negative”, the mutagenic call (Test System: AMES SALMONELLA TYPHIMURIUM, Strain/Indicator: TA1535, Metabolic Activation: NONE, Method: STANDARD PLATE) was “inactive; negative” and the mutagenic call (Test System: AMES SALMONELLA TYPHIMURIUM, Strain/Indicator: TA1535, Metabolic Activation: RAT, LIVER, S-9, AROCLOR 1254, Method: STANDARD PLATE) was “inactive; negative”. The mutagenic call (Test System: AMES SALMONELLA TYPHIMURIUM, Strain/Indicator: TA1537, Metabolic Activation: HAMSTER, LIVER, S-9, AROCLOR 1254, Method: STANDARD PLATE) was “inactive; negative”, the mutagenic call [5] was “inactive; negative” and the mutagenic call [6] was “inactive; negative”. For the same molecule, the mutagenic call (Test System: AMES SALMONELLA TYPHIMURIUM, Strain/Indicator: TA1538, Metabolic Activation: HAMSTER, LIVER, S-9, AROCLOR 1254, Method: STANDARD PLATE) was “inactive; negative”, the mutagenic call (Test System: AMES SALMONELLA TYPHIMURIUM, Strain/Indicator: TA1538, Metabolic Activation: NONE, Method: STANDARD PLATE) was “inactive; negative” and the mutagenic call (Test System: AMES SALMONELLA TYPHIMURIUM, Strain/Indicator: TA1538, Metabolic Activation: RAT, LIVER, S-9, AROCLOR 1254, Method: STANDARD PLATE) was “inactive; negative”. For the same molecule, the mutagenic call (Test System: MOUSE LYMPHOMA, Strain/Indicator: L5178Y (TK+/TK-), Metabolic Activation: NONE, Method: SUSPENSION/PLATE) was “active; positive. reevaluation of results: positive” and the mutagenic call (Test System: MOUSE LYMPHOMA, Strain/Indicator: L5178Y (TK+/TK-), Metabolic Activation: RAT, LIVER, S-9, AROCLOR 1254, Method: SUSPENSION/PLATE) was “active; positive. reevaluation of results: equivocal”.
